PubChem BioAssay AID2202554 (NIEHS Division of Translational Toxicology (DTT))
Records with an inconclusive call do not appear. Active and inactive are the calls of the source. The rule behind the calls is not given here.

These compounds were tested on S. typhimurium/E. coli reverse mutation, colony counts (assay: Bacterial reverse mutation test (aka Ames test) summary data).
How it was run: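 Revertant colony counts on plates, compared with untreated controls, after about two days of growth. Exposure with or without liver S9 (rat/hamster/mouse), dose range per strain, 20-min 37° C preincubation or direct plate incorporation. Strains: his⁻ Salmonella, trp⁻ E. coli WP2 uvrA pKM101.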
`CN(C)P(=O)(N(C)C)N(C)C` was tested, and the outcome was “inactive; negative”. `Cc1ccccc1N=Nc1c(O)ccc2ccccc12` was tested, and the outcome was “active; positive”. `O=C(OC1CCCCC1)c1ccccc1C(=O)OC1CCCCC1` was tested, and the outcome was “inactive; negative”. For `CCCCCC[C@@H](O)C/C=C\CCCCCCCC(=O)O`, the outcome was “inactive; negative”. For `c1ccccc1`, the outcome was “inactive; negative”. With `Cc1ccc(C(C)(C)O)cc1` the outcome was “inactive; negative”. With `CC[N+](=O)[O-]` the outcome was “inactive; negative”. For `CN(C)c1ccc(N=NS(=O)(=O)O)cc1`, the outcome was “active; positive”. `CSC(C)(C)C=NO` was tested, and the outcome was “inactive; negative”. `CCCCC(CC)COC(=O)c1cccc(C(=O)OCC(CC)CCCC)c1` (stereo not given) was tested, and the outcome was “inactive; negative”. In the case of `Cc1c(C(=O)O)c(O)cc2c1C(=O)c1c(O)c([C@@H]3O[C@H](CO)[C@@H](O)[C@H](O)[C@H]3O)c(O)c(O)c1C2=O`, the outcome is reported as “active; weakly positive”. `[Cd+2].[Cl-].[Cl-]` was tested, and the outcome was “inactive; negative”. `CS(=O)(=O)OCCCCOS(C)(=O)=O` was tested, and the outcome was “active; positive”. `Cc1ccc(C(=O)O)cc1` was tested, and the outcome was “inactive; negative”. With `c1ccc2c(c1)ccc1cc3c(ccc4ccccc43)cc12` the outcome was “active; positive”. For `COc1cc(-c2ccc(N=Nc3c(S(=O)(=O)O)cc4cc(S(=O)(=O)O)cc(N)c4c3O)c(OC)c2)ccc1N=Nc1c(S(=O)(=O)O)cc2cc(S(=O)(=O)O)cc(N)c2c1O`, the outcome was “inactive; negative”. In the case of `O=C(O)C(F)(F)C(F)(F)C(F)(F)C(F)(F)C(F)(F)F`, the outcome is reported as “inactive; negative”. `CCCCn1cc[n+](C)c1` was tested, and the outcome was “inactive; negative”. For `C=C(C)/C([O-])=N/[N+](C)(C)CC(C)O` (stereo not given), the outcome was “inactive; negative”. For `O=c1ccc(=O)[nH][nH]1`, the outcome was “inactive; negative”. With `COc1cc2c(c3oc(=O)c4c(c13)CCC4=O)[C@@H]1C=CO[C@@H]1O2` the outcome was “active; positive”. With `O=CNc1ccccc1` the outcome was “inactive; negative”. With `C1CCCC1` the outcome was “inactive; negative”. In the case of `CC1(C)S[C@@H]2[C@H](NC(=O)[C@H](N)c3ccccc3)C(=O)N2[C@H]1C(=O)O`, the outcome is reported as “inactive; negative”. In the case of `CCC[CH2][Sn]([CH2]CCC)([O]C(C)=O)[O]C(C)=O`, the outcome is reported as “inactive; negative”. For `C=C(Cl)C(=O)OC`, the outcome was “active; positive”. With `CN1CCCC1=O` the outcome was “inactive; negative”. With `O=[N+]([O-])c1ccc(Cl)cc1Cl` the outcome was “active; positive”. For `O=C(O)CN(CCN(CC(=O)O)CC(=O)O)CC(=O)O`, the outcome was “inactive; negative”. In the case of `O=S(=O)(O)c1ccc(N=Nc2c(O)ccc3cc(S(=O)(=O)O)ccc23)cc1`, the outcome is reported as “inactive; negative”. With `CC(=O)NNC(=O)c1ccccn1` the outcome was “inactive; negative”. `CCCN(CCC)c1c([N+](=O)[O-])cc(C(F)(F)F)cc1[N+](=O)[O-]` was tested, and the outcome was “active; positive”. For `CN(C)C(=O)Oc1ccc[n+](C)c1`, the outcome was “inactive; negative”. In the case of `CC[C@H]1OC(=O)[C@H](C)[C@@H](O[C@H]2C[C@@](C)(OC)[C@@H](O)[C@H](C)O2)[C@H](C)[C@@H](O[C@@H]2O[C@H](C)C[C@H](N(C)C)[C@H]2O)[C@](C)(O)C[C@@H](C)C(=O)[C@H](C)[C@@H](O)[C@]1(C)O`, the outcome is reported as “inactive; negative”. For `OCCCCl`, the outcome was “active; positive”. For `OCC(CO)(CCBr)CCBr`, the outcome was “active; positive”. `ClC=CC[N+]12CN3CN(CN(C3)C1)C2` was tested, and the outcome was “active; weakly positive”. For `O=[N+]([O-])c1ccccc1O`, the outcome was “inactive; negative”. In the case of `Cn1cnc2c1c(=O)[nH]c(=O)n2C`, the outcome is reported as “inactive; negative”. With `N[C@@H](Cc1ccc(N(CCCl)CCCl)cc1)C(=O)O` the outcome was “active; positive”. With `O=[N+]([O-])c1ccc(Cl)c(Cl)c1Cl` the outcome was “active; positive”. For `c1ccc2sc(SSc3nc4ccccc4s3)nc2c1`, the outcome was “active; positive”. For `CC(=O)O[C@H](CC(=O)[O-])C[N+](C)(C)C`, the outcome was “inactive; negative”. For `O=CC=O`, the outcome was “active; positive”. In the case of `O=C1CCc2ccccc2O1`, the outcome is reported as “inactive; negative”. In the case of `COc1c(C(C)(C)C)cc([N+](=O)[O-])c(C)c1[N+](=O)[O-]`, the outcome is reported as “inactive; negative”. With `Nc1ccc(S(=O)(=O)c2ccc(N)cc2)cc1` the outcome was “inactive; negative”. `O=C(O)C(Br)Br` was tested, and the outcome was “active; positive”. With `O=C(O)CNC(=O)c1ccc([N+](=O)[O-])cc1` the outcome was “active; positive”. `Nc1c2c(nc3ccccc13)CCCC2` was tested, and the outcome was “active; positive”. `O=P1(N(CCCl)CCCl)NCCCO1` (stereo not given) was tested, and the outcome was “active; positive”. For `O=S(=O)(c1ccc(Cl)cc1)c1ccc(Cl)cc1`, the outcome was “inactive; negative”. With `CCC1NC(=O)c2cc(S(N)(=O)=O)c(Cl)cc2N1` (stereo not given) the outcome was “inactive; negative”. `Cc1cc(C)cc(N)c1` was tested, and the outcome was “active; weakly positive”. For `CCCC(C)=O`, the outcome was “inactive; negative”. With `C=CC` the outcome was “active; positive”. `c1ccc(P(c2ccccc2)c2ccccc2)cc1` was tested, and the outcome was “inactive; negative”. For `O=C(O)C(F)(F)C(F)(F)C(F)(F)C(F)(F)C(F)(F)C(F)(F)C(F)(F)C(F)(F)C(F)(F)F`, the outcome was “inactive; negative”. `CC1=C(/C=C/C(C)=C/C=C/C(C)=C/CO)C(C)(C)CCC1` was tested, and the outcome was “active; weakly positive”. In the case of `C1OCOCO1`, the outcome is reported as “inactive; negative”.
